Assay results as given in paper PMC13447983, “Identifying and characterising a plant GH1 β‐glucosidase that exhibits hydrolytic activity on N‐linked glucopyranoside” (FEBS Open Bio, 2026).

Biological target: T1, ZmGlu1 (Zea mays, UniProt P49235)
T1 construct: gene GLU1; E. coli BL21 Star (DE3)
Experiment: HPLC of released methyl anthranilate at […] nm, Michaelis-Menten fit
Format: biochemical
Details: 50 mM phosphate pH 6.0, 35 °C, 3 μM enzyme, 1.17-20 mM substrate

T1 sequence (P49235 55-566): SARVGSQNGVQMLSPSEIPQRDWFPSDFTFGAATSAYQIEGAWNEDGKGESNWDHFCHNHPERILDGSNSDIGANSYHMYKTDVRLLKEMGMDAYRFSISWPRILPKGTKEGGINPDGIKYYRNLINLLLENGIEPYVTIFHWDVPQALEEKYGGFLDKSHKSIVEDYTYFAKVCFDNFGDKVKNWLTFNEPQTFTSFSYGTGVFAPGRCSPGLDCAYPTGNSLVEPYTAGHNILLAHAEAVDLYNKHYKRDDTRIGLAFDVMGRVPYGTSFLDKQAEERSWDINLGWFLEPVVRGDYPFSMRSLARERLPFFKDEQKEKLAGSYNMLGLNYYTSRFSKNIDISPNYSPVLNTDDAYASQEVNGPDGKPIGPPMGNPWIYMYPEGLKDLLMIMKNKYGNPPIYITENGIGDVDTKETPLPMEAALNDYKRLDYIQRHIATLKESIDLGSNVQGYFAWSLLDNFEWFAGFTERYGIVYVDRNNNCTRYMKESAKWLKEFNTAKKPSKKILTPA

Km: 13.7 ± 1.22 mM
SMILES: COC(=O)c1ccccc1N[C@@H]1O[C@H](CO)[C@@H](O)[C@H](O)[C@H]1O [MANT‐N‐glucose, methyl anthranilate‐N‐β‐D‐glucopyranoside]
